Experimental data published in patent US20080221330A1, “Mutilin-Derivative Substituted at Position 12” (priority 2004, published 2008).
Where a name gives a salt, the structure may show the parent alone.

Assays:
S. pneumoniae IID 553 = assay: Minimum inhibitory concentration (MIC) by NCCLS agar dilution technique; format: cell-based
Description: (§1) The minimum inhibitory concentration (MIC) was determined for each compound by NCCLS agar dilution technique (Methods for dilution antimicrobial susceptibility tests for bacteria that grow aerobically; approved standard-sixth edition. […] The results are shown in Table below and indicate that the compounds of the present invention have high antimicrobial activity.

S. aureus 209P = assay: as above; format: cell-based
Description: as §1

SMILES	minimum inhibitory concentration (MIC), in vitro antimicrobial activity (S. pneumoniae IID 553)	minimum inhibitory concentration (MIC), in vitro antimicrobial activity (S. aureus 209P)
CC1C(O)C(C)(C)CC(OC(=O)NC(=O)C2CN3CCC2C3)C2(C)C(C)CCC13CCC(=O)C32.Cl [Example 2, 14-{(3R,4S)-1-azabicyclo[2.2.1]heptane-3-carbonyl}carbamoyl-12-desethenyl-12-methylmutilin hydrochloride]	1	0.125
C=CCC1(C)CC(OC(=O)NC(=O)C2CN3CCC2C3)C2(C)C(C)CCC3(CCC(=O)C32)C(C)C1O.Cl [Example 4, 14-{(3R,4S)-1-azabicyclo[2.2.1]heptane-3-carbonyl}carbamoyl-12-desethenyl-12-(1-propene-3-yl)mutilin hydrochloride]	0.5	0.125
CCC[C@]1(C)C[C@@H](OC(=O)NC(=O)[C@H]2CN3CC[C@@H]2C3)[C@@]2(C)C3C(=O)CCC3(CC[C@H]2C)[C@@H](C)[C@@H]1O (stereo partly drawn) [Example 17, 14-{(3R,4S)-1-azabicyclo[2.2.1]heptane-3-carbonyl}carbamoyl-12-desethenyl-12-propylmutilin hydrochloride]	2	0.125
CCCC[C@]1(C)C[C@@H](OC(=O)NC(=O)[C@H]2CN3CC[C@@H]2C3)[C@@]2(C)C3C(=O)CCC3(CC[C@H]2C)[C@@H](C)[C@@H]1O (stereo partly drawn) [Example 18, 12-butyl-14-{(3R,4S)-1-azabicyclo[2.2.1]heptane-3-carbonyl}car bamoyl-12-desethenylmutilin]	2	0.125
C/C=C/C[C@]1(C)C[C@@H](OC(=O)NC(=O)[C@H]2CN3CC[C@@H]2C3)[C@@]2(C)C3C(=O)CCC3(CC[C@H]2C)[C@@H](C)[C@@H]1O (stereo partly drawn) [Example 20, 14-{(3R,4S)-1-azabicyclo[2.2.1]heptane-3-carbonyl}carbamoyl-12-[(E)-2-butene-4-yl]-12-desethenylmutilin]	0.5	0.06
C=C[C@]1(C)C[C@@H](OC(=O)CSCCN(CC)CC)[C@]2(C)[C@H](C)CC[C@]3(CCC(=O)[C@H]32)[C@@H](C)[C@@H]1O [tiamulin, reference compound]	1-2	0.06-0.125
